Like-named read-outs stand apart in the source and are kept apart here.
What was measured:
[1] = target: T1, Mcl-1 (myeloid cell leukemia-1) (Homo sapiens, UniProt Q07820); assay: 1H-15N HSQC NMR titration; type: binding
[2] = target: T1, Mcl-1 (myeloid cell leukemia-1); assay: 1H-15N HSQC NMR titration; type: binding; remark: listed apart in the source

T1 sequence (Q07820 172-327): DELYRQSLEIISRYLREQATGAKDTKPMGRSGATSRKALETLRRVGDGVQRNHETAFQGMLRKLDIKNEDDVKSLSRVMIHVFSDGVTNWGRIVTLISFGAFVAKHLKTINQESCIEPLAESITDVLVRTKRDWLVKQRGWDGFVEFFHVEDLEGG

Row | Compound | Kd [1] | Kd [2]
1 | O=C(O)c1ccc(-n2nc(-c3ccccc3O)nc2-c2ccccc2O)cc1 [Deferasirox] | ~300 µM | 
2 | Cc1cccc(Nc2ccncc2S(=O)(=O)NC(=O)NC(C)C)c1 [Torsemide] |  | ~1000 µM
